Usually IC50 stands for the concentration needed to halve the response being measured.

One data set concerns A549. In words: MTT cytotoxicity, A549. In kind it is cell-based. To be noted: Homo sapiens, read-out: IC50 (µM) Cancer Cell Lines A549. An excerpt: (§1) Cells and Materials. For the experiments, we used tumor cell cultures M-HeLa clone 11 (epithelioid carcinoma of the cervix, subline HeLa, clone M-HeLa), HuTu 80, human duodenal adenocarcinoma, Hep-2, human epithelial cells, SH-SY5Y, human neuroblast-like cells, A549, human lung adenocarcinoma, PA-1, human ovarian teratocarcinoma and MCF-7, a human mammary ductal adenocarcinoma from the collection of the Institute of Cytology, Russian Academy of Sciences (St. Petersburg, Russia); human liver cells (Chang liver) were from the collection and the Research Institute of Virology of the Russian Academy of Medical Sciences (Moscow, Russia).
(§2) MTT Assay. The cytotoxic effect on cells was determined using the colorimetric method of cell proliferation—the MTT test. NADP-H-dependent cellular oxidoreductase enzymes can, under certain conditions, reflect the number of viable cells. These enzymes reduce the tetrazolium dye (MTT) 3-(4,5-dimethylthiazol-2-yl)-2,5-diphenyl-tetrazolium bromide to insoluble blue-violet formazan, which crystallizes inside the cell. The amount of formed formazan is proportional to the number of cells with active metabolism. […] Optical density was recorded at 540 nm on an Invitrologic microplate reader (Novosibirsk, Russia). […]
(§3) Statistical analysis. The IC50 values were calculated using the MLA–Quest Graph™ IC50 Calculator (AAT Bioquest, Inc., Sunnyvale, CA, USA), 14 February 2022. […]

The next data set concerns HuTu 80. The experiment in a line: MTT cytotoxicity, HuTu 80. The data set is classed as cell-based, human. To be noted: for IC50: MTT, 48 h incubation, read-out: IC50 (µM) Cancer Cell Lines HuTu 80.
Source text: as §1
(§4) MTT Assay. The cytotoxic effect on cells was determined using the colorimetric method of cell proliferation—the MTT test. NADP-H-dependent cellular oxidoreductase enzymes can, under certain conditions, reflect the number of viable cells. These enzymes reduce the tetrazolium dye (MTT) 3-(4,5-dimethylthiazol-2-yl)-2,5-diphenyl-tetrazolium bromide to insoluble blue-violet formazan, which crystallizes inside the cell. The amount of formed formazan is proportional to the number of cells with active metabolism. Cells were seeded on a 96-well Nunc plate at a concentration of 5 × 10^3 cells per well in a volume of 100 μL of medium and cultured in a CO2 incubator at 37 °C until a monolayer was formed. After the nutrient medium was removed, 100 µL of the test drug solutions at the given dilutions were added to the wells, which were prepared directly in the nutrient medium with the addition of 5% DMSO to improve solubility. After 48 h of incubation of the cells with the tested compounds, the nutrient medium was removed from the plates and 100 µL of the nutrient medium without serum with MTT at a concentration of 0.5 mg/mL was added and incubated for 4 h at 37 °C. Formazan crystals were added 100 µL of DMSO to each well. Optical density was recorded at 540 nm on an Invitrologic microplate reader (Novosibirsk, Russia). The experiments for all compounds were repeated three times.
(§5) Statistical analysis. The IC50 values were calculated using the MLA–Quest Graph™ IC50 Calculator (AAT Bioquest, Inc., Sunnyvale, CA, USA), 14 February 2022. Statistical analysis was performed with the Mann–Whitney test (p < 0.05). Tabular and graphical data contain averages and standard error.

A further data set relates to MCF-7. In words: MTT cytotoxicity, MCF-7. In kind it is cell-based. To be noted: Homo sapiens, MCF7, read-out: IC50 (µM) Cancer Cell Lines MCF-7.
Source text: as §1, §2, §3

The test system of another data set is M-HeLa. The experiment in a line: MTT cytotoxicity, M-HeLa. The data set is classed as cell-based, human. To be noted: Homo sapiens, M-HeLa; MTT, 48 h incubation; read-out: IC50 (µM) Cancer Cell Lines M-HeLa.
Source text: as §1, §4, §5

The test system of data set [1] is HuTu 80 cells. In words: Induction of apoptosis, flow cytometry (annexin V-Alexa Fluor 647 / propidium iodide). In kind it is cell-based, human. The following applies: IC50/2 and IC50, 24 h. Here is the method: The ability of the new compounds, proposed as antitumor agents, to induce cell death via apoptosis is a critical feature for their potential use in therapy. The apoptosis-inducing effects of lead compounds were investigated using flow cytometry at IC50/2 and IC50 concentrations on the HuTu 80 cell line (Figure 6A).
(§6) Cell Culture. HuTu 80 cells at 1 × 10^6 cells/well in a final volume of 2 mL were seeded into six-well plates. After 48 h of incubation, various concentrations of lead compounds were added to wells.
Cell Apoptosis Analysis. The cells were harvested at 2000 rpm for 5 min and were then washed twice with ice-cold PBS, and resuspended in binding buffer. Next, the samples were incubated with 5 μL of annexin V-Alexa Fluor 647 (Sigma-Aldrich, St Louis, MO, USA) and 5 μL of propidium iodide for 15 min at room temperature in the dark. Finally, the cells were analyzed using flow cytometry (Guava easy Cyte, MERCK, Rahway, NJ, USA) within 1 h. The experiments were repeated three times.
(A flow cytometer gives signals particle by particle.)

A further data set relates to PA-1. The experiment in a line: MTT cytotoxicity, PA-1. The data set is classed as cell-based. The following applies: Homo sapiens, read-out: IC50 (µM) Cancer Cell Lines PA-1.
Source text: as §1, §2, §3

For data set [2], the system named is HuTu 80 cells. The experiment in a line: Intracellular ROS, CellROX Deep Red flow cytometry. The data set is classed as cell-based, human. The following applies: IC50/2 and IC50. Here is the method:
The apoptosis via the mitochondrial pathway also increases the production of reactive oxygen species (ROS). As mitochondria itself becomes the target of ROS, an increase in their production disrupts mitochondrial functions and culminates in irreversible cell damage. Therefore, the effect of lead compounds 6a and 5a at IC50/2 and IC50 concentrations on ROS production in HuTu 80 cells was evaluated using flow cytometry. […] Such an effect is not observed for intact cells in the presence of both compounds, indicating an increase in ROS production in cancer tissues.
Detection of Intracellular ROS. HuTU 80 cells were incubated with lead compounds at concentrations of IC50/2 and IC50 for 48 h. ROS generation was investigated using flow cytometry assay and CellROX® Deep Red flow cytometry kit. For this purpose, […] cells were harvested at 2000 rpm for 5 min and then washed twice with ice-cold PBS, followed by resuspension in 0.1 mL of medium without FBS, to which was added 0.2 μL of CellROX® Deep Red, which was followed by incubation at 37 °C for 30 min. The cells were washed three times and suspended in PBS. After that, the production of ROS in the cells was immediately monitored using flow cytometer (Guava easy Cyte, MERCK, Rahway, NJ, USA).

Data set [3] concerns HuTu 80 cells. The experiment in a line: Mitochondrial membrane potential, JC-10 flow cytometry. To be noted: 24 h treatment, IC50/2 and IC50. In kind it is cell-based, human. The protocol: In this study, we used the fluorescent dye JC-10 from the Mitochondria Membrane Potential Kit (Sigma, St. Louis, MO, USA). Changes in mitochondrial membrane potential under the influence of lead compounds 5a and 6a were determined at IC50/2 and IC50 concentrations on the HuTu 80 cell line. When JC-10 accumulates in the mitochondrial matrix, it forms fluorescent J-aggregates. Their red fluorescence is characteristic for normal cells with high mitochondrial membrane potential. The reduction in mitochondrial membrane potential in apoptotic cells allows JC-10 to escape out of the mitochondria in a monomeric form which has green fluorescence. The mitochondrial membrane potential of HuTu 80 cells is decreased after 24 h treatment with the lead compounds 5a and 6a. The change becomes more pronounced as the concentrations of the tested compounds approach IC50 (Figure 7).
as §6
Mitochondrial Membrane Potential. […] After the cells were rinsed three times and suspended in PBS, the JC-10 fluorescence was observed using flow cytometry (Guava easy Cyte, MERCK, Rahway, NJ, USA).

Another data set deals with Hep-2. In words: MTT cytotoxicity, Hep-2. In kind it is cell-based. To be noted: Homo sapiens, read-out: IC50 (µM) Cancer Cell Lines Hep-2.
Source text: as §1, §2, §3

Another data set relates to Chang Liver. In words: MTT cytotoxicity, normal Chang liver cells. The data set is classed as cell-based, human. To be noted: Homo sapiens, Chang liver, 48 h incubation, read-out: IC50 (µM) Normal Cell Line Chang Liver.
Source text: as §1, §4, §5

Another data set concerns SH-SY5Y. In words: MTT cytotoxicity, SH-SY5Y. To be noted: Homo sapiens, read-out: IC50 (µM) Cancer Cell Lines SH-SY5Y. In kind it is cell-based.
Source text: as §1, §2, §3

The structures appear in SMILES notation. Like-named read-outs stand apart in the source and are kept apart here.

`Cc1cc(O)c(C(CCNC(=O)CCl)c2c(O)cc(C)oc2=O)c(=O)o1` [Compound 5a]: the IC50 came to 82.1 ± 3.56 µM with A549; 1.7 µM in the data set with HuTu 80 (Homo sapiens, HuTu80, 48 h); 1.9 ± 0.2 µM in the data set on HuTu 80; 85.6 ± 3.12 µM with MCF-7; 56.2 ± 4.7 µM in the data set on M-HeLa; 80.2 ± 4.05 µM in the data set with PA-1. The IC50 came to 65.8 ± 1.18 µM in the data set with Hep-2, 139 ± 11 µM with Chang Liver and 75.8 ± 2.84 µM in the data set on SH-SY5Y. In the data set on HuTu 80 (HuTu 80), the “times more effective / more cytotoxic than the reference drug sorafenib” value is reported as 1.7. The “apoptosis-inducing effect (in words)” value in the data set on HuTu 80 cells [1] is “apoptotic effects increase at the early apoptosis stage”. The “ROS production, CellROX Deep Red fluorescence intensity (in words)” value with HuTu 80 cells [2] is given as “significant reliable increase”. The “mitochondrial membrane potential (in words)” value in the data set with HuTu 80 cells [3] is on record as “decreased”.

The values above are taken from paper PMC11203978, “Discovery of Di(het)arylmethane and Dibenzoxanthene Derivatives as Potential Anticancer Agents” (International Journal of Molecular Sciences, 2024).
